The structures appear in SMILES notation. pIC50: −log10 of the molar value.

This assay concerns platelet aggregation induced by ADP in human platelet-rich plasma (PRP). The assay is described as follows: Human platelet aggregation inhibitory activity (ADP-induced, platelet-rich plasma). Type of assay: cell-based. Conditions: 8 min, ADP final concentration 20 μM, maximum aggregation rate, measured for 8 minutes. On the procedure:
A blood collecting syringe containing 1/10 volume of a 3.8% sodium citrate solution was used to collect blood from radial vein of a healthy person. The collected blood was centrifuged at 180×g at room temperature for 10 minutes to separate the supernatant (platelet-rich plasma; PRP). After PRP was separately collected, the remaining blood was centrifuged at 1,600×g for 10 minutes to separately collect platelet-poor plasma (PPP) of the upper layer. PRP was left at rest at 16° C. for 30 minutes, and subsequently used for measurement.
200 μL of the separately collected PRP was dispensed into a cuvette for the aggregation test, and 1 μL of dimethylsulfoxide (control) or a test compound solution diluted with dimethylsulfoxide was added, followed by incubation at 37° C. for 2 minutes. Subsequently, 2 μL of 2 mM ADP was added (final concentration 20 μM) to induce platelet aggregation.
Platelet aggregation was measured for 8 minutes using an aggregometer (MCM HEMA TRACER 313M; MC MEDICAL, INC.). With the light transmittance rate of PPP being set as an aggregation value of 100%, the maximum aggregation rate was determined for each concentration of the test compounds to calculate IC50 values.
Turning to `C[C@@H]1Oc2ncc(F)cc2N(C2CCN(C(=O)c3ccc(-c4ccccc4OCC(C)(C)C(=O)O)cc3F)CC2)C1=O` [Example 1, 3-{[3′-Fluoro-4′-({4-[(3S)-7-fluoro-3-methyl-2-oxo-2,3-dihydro-1H-pyrido[2,3-b][1,4]oxazin-1-yl]piperidin-1-yl}carbonyl)biphenyl-2-yl]oxy}-2,2-dimethylpropanoic acid], the pIC50 (in general, the negative decadic logarithm of the IC50, by convention in mol/L) was 4.82.

Take `CC(C)(COc1ccccc1-c1ccc(C(=O)N2CCC(N3C(=O)C(C)(C)Oc4ncc(C(F)(F)F)cc43)CC2)c(F)c1)C(=O)O` [Example 3, 3-{[4′-({4-[3,3-Dimethyl-2-oxo-7-(trifluoromethyl)-2,3-dihydro-1H-pyrido[2,3-b][1,4]oxazin-1-yl]piperidin-1-yl}carbonyl)-3′-fluorobiphenyl-2-yl]oxy}-2,2-dimethylpropanoic acid]: the negative-log IC50 (pIC50) was 5.42. `Cc1cnc2c(c1)N(C1CCN(C(=O)c3ccc(-c4ccccc4OCC(C)(C)C(=O)O)cc3F)CC1)C(=O)C(C)O2` (stereo not shown) [Example 4, 3-[(4′-{[4-(3,7-Dimethyl-2-oxo-2,3-dihydro-1H-pyrido[2,3-b][1,4]oxazin-1-yl)piperidin-1-yl]carbonyl}-3′-fluorobiphenyl-2-yl)oxy]-2,2-dimethylpropanoic acid] showed a pIC50 of 5.40.

`C[C@H](CC(=O)O)Oc1ccccc1-c1ccc(C(=O)N2CCC(N3C(=O)COc4ncc(Cl)cc43)CC2)c(F)c1` [Example 7, (3R)-3-[(4′-{[4-(7-Chloro-2-oxo-2,3-dihydro-1H-pyrido[2,3-b][1,4]oxazin-1-yl)piperidin-1-yl]carbonyl}-3′-fluorobiphenyl-2-yl)oxy]butanoic acid] had a pIC50 of 5.10. `C[C@H](CC(=O)O)Oc1ccccc1-c1ccc(C(=O)N2CCC(N3C(=O)CCc4ncc(Cl)cc43)CC2)c(F)c1` [Example 8, (3R)-3-[(4′-{[4-(7-Chloro-2-oxo-3,4-dihydro-1,5-naphthyridin-1(2H)-yl)piperidin-1-yl]carbonyl}-3′-fluorobiphenyl-2-yl)oxy]butanoic acid] had a pIC50 of 4.85. As for `C[C@@H](COc1ccccc1-c1ccc(C(=O)N2CCC(N3C(=O)CCc4ncc(Cl)cc43)CC2)c(F)c1)C(=O)O` [Example 12, (2S)-3-[(4′-{[4-(7-Chloro-2-oxo-3,4-dihydro-1,5-naphthyridin-1(2H)-yl)piperidin-1-yl]carbonyl}-3′-fluorobiphenyl-2-yl)oxy]-2-methylpropanoic acid], the figure is 4.80; as for `Cc1cc(-c2ccccc2OCC(C)(C)C(=O)O)ccc1C(=O)N1CCC(N2C(=O)C3(CC3)Oc3ncc(Cl)cc32)CC1` [Example 15, 3-[(4′-{[4-(7′-Chloro-2′-oxospiro[cyclopropane-1,3′-pyrido[2,3-b][1,4]oxazin]-1′(2′H)-yl)piperidin-1-yl]carbonyl}-3′-methylbiphenyl-2-yl)oxy]-2,2-dimethylpropanoic acid], 5.24; as for `CC(C)(COc1ccccc1-c1ccc(C(=O)N2CCC(N3C(=O)C4(CC4)Oc4ncc(Cl)cc43)CC2)c(Cl)c1)C(=O)O` [Example 18, 3-[(3′-Chloro-4′-{[4-(7′-chloro-2′-oxospiro[cyclopropane-1,3′-pyrido[2,3-b][1,4]oxazin]-1′(2′H)-yl)piperidin-1-yl]carbonyl}biphenyl-2-yl)oxy]-2,2-dimethylpropanoic acid], 5.00. For the compound `C[C@@H]1Oc2ncc(Cl)cc2N(C2CCN(C(=O)c3ccc(-c4ccccc4OCC(C)(C)C(=O)O)cc3)CC2)C1=O` [Example 20, 3-{[4′-({4-[(3S)-7-Chloro-3-methyl-2-oxo-2,3-dihydro-1H-pyrido[2,3-b][1,4]oxazin-1-yl]piperidin-1-yl}carbonyl)biphenyl-2-yl]oxy}-2,2-dimethylpropanoic acid], the pIC50 is 5.55. The compound `CC(C)(COc1ccccc1-c1ccc(C(=O)N2CCC(N3C(=O)C(C)(C)Oc4ncc(Cl)cc43)CC2)c(O)c1)C(=O)O` [Example 21, 3-[(4′-{[4-(7-Chloro-3,3-dimethyl-2-oxo-2,3-dihydro-1H-pyrido[2,3-b][1,4]oxazin-1-yl)piperidin-1-yl]carbonyl}-3′-hydroxybiphenyl-2-yl)oxy]-2,2-dimethylpropanoic acid] gave a negative logarithm of the IC50 (pIC50) of 5.06. Then `CC(C)(COc1ccccc1-c1ccc(C(=O)N2CCC(N3C(=O)C(C)(C)Oc4ncc(Cl)cc43)CC2)c([N+](=O)[O-])c1)C(=O)O` [Example 22, 3-[(4′-{[4-(7-Chloro-3,3-dimethyl-2-oxo-2,3-dihydro-1H-pyrido[2,3-b][1,4]oxazin-1-yl)piperidin-1-yl]carbonyl}-3′-nitrobiphenyl-2-yl)oxy]-2,2-dimethylpropanoic acid], with 5.24; and `CC1(C)Oc2ncc(Cl)cc2N(C2CCN(C(=O)c3ccc(-c4ccccc4OCC4(C(=O)O)CC4)cc3F)CC2)C1=O` [Example 23, 1-{[(4′-{[4-(7-Chloro-3,3-dimethyl-2-oxo-2,3-dihydro-1H-pyrido[2,3-b][1,4]oxazin-1-yl)piperidin-1-yl]carbonyl}-3′-fluorobiphenyl-2-yl)oxy]methyl}cyclopropanecarboxylic acid], with 5.28.

`Cc1cnc2c(c1)N(C1CCN(C(=O)c3ccc(-c4ccccc4O[C@H](C)CC(=O)O)cc3F)CC1)C(=O)C(C)(C)O2` [Example 30, (3R)-3-[(4′-{[4-(3,3,7-Trimethyl-2-oxo-2,3-dihydro-1H-pyrido[2,3-b][1,4]oxazin-1-yl)piperidin-1-yl]carbonyl}-3′-fluorobiphenyl-2-yl)oxy]butanoic acid] gave a pIC50 of 5.70. As for `C[C@H](CC(=O)O)Oc1ccc(F)cc1-c1ccc(C(=O)N2CCC(N3C(=O)COc4ncc(Cl)cc43)CC2)c(F)c1` [Example 31, (3R)-3-[(4′-{[4-(7-Chloro-2-oxo-2,3-dihydro-1H-pyrido[2,3-b][1,4]oxazin-1-yl)piperidin-1-yl]carbonyl}-3′,5-difluorobiphenyl-2-yl)oxy]butanoic acid], the figure is 4.74; as for `C[C@H](CC(=O)O)Oc1ccc(F)cc1-c1ccc(C(=O)N2CCC(N3C(=O)CCc4ncc(Cl)cc43)CC2)c(F)c1` [Example 32, (3R)-3-[(4′-{[4-(7-Chloro-2-oxo-3,4-dihydro-1,5-naphthyridin-1(2H)-yl)piperidin-1-yl]carbonyl}-3′,5-difluorobiphenyl-2-yl)oxy]butanoic acid], 4.77. Then `C[C@H](C(=O)O)[C@@H](C)Oc1ccccc1-c1ccc(C(=O)N2CCC(N3C(=O)C(C)(C)Oc4ncc(Cl)cc43)CC2)c(F)c1` [Example 33, (2S,3R)-3-[(4′-{[4-(7-Chloro-3,3-dimethyl-2-oxo-2,3-dihydro-1H-pyrido[2,3-b][1,4]oxazin-1-yl)piperidin-1-yl]carbonyl}-3′-fluorobiphenyl-2-yl)oxy]-2-methylbutanoic acid], with 4.80; and `CC1(C)Cc2ncc(Cl)cc2N(C2CCN(C(=O)c3ccc(-c4cc(F)ccc4OCCC(=O)O)cc3F)CC2)C1=O` [Example 37, 3-[(4′-{[4-(7-Chloro-3,3-dimethyl-2-oxo-3,4-dihydro-1,5-naphthyridin-1(2H)-yl)piperidin-1-yl]carbonyl}-3′,5-difluorobiphenyl-2-yl)oxy]propanoic acid], with 5.18. As for `C[C@H](CC(=O)O)Oc1ccccc1-c1cnc(C(=O)N2CCC(N3C(=O)C(C)(C)Oc4ncc(Cl)cc43)CC2)c(F)c1` [Example 39, (3R)-3-[2-(6-{[4-(7-Chloro-3,3-dimethyl-2-oxo-2,3-dihydro-1H-pyrido[2,3-b][1,4]oxazin-1-yl)piperidin-1-yl]carbonyl}-5-fluoropyridin-3-yl)phenoxy]butanoic acid], the figure is 6.00; as for `C[C@H](CC(=O)O)Oc1ccccc1-c1cnc(C(=O)N2CCC(N3C(=O)[C@H](C)Oc4ncc(Cl)cc43)CC2)c(F)c1` [Example 40, (3R)-3-{2-[6-({4-[(3S)-7-Chloro-3-methyl-2-oxo-2,3-dihydro-1H-pyrido[2,3-b][1,4]oxazin-1-yl]piperidin-1-yl}carbonyl)-5-fluoropyridin-3-yl]phenoxy}butanoic acid], 5.96; as for `C[C@H](CC(=O)O)Oc1ccc(F)cc1-c1cnc(C(=O)N2CCC(N3C(=O)[C@H](C)Oc4ncc(Cl)cc43)CC2)c(F)c1` [Example 43, (3R)-3-{2-[6-({4-[(3S)-7-Chloro-3-methyl-2-oxo-2,3-dihydro-1H-pyrido[2,3-b][1,4]oxazin-1-yl]piperidin-1-yl}carbonyl)-5-fluoropyridin-3-yl]-4-fluorophenoxy}butanoic acid], 5.59.

In turn, `C[C@@H](COc1ccccc1-c1cnc(C(=O)N2CCC(N3C(=O)C(C)(C)Oc4ncc(Cl)cc43)CC2)c(F)c1)C(=O)O` [Example 47, (2S)-3-[2-(6-{[4-(7-Chloro-3,3-dimethyl-2-oxo-2,3-dihydro-1H-pyrido[2,3-b][1,4]oxazin-1-yl)piperidin-1-yl]carbonyl}-5-fluoropyridin-3-yl)phenoxy]-2-methylpropanoic acid] had a pIC50 of 5.70. With `C[C@@H](COc1ccc(F)cc1-c1cnc(C(=O)N2CCC(N3C(=O)C(C)(C)Cc4ncc(Cl)cc43)CC2)c(F)c1)C(=O)O` [Example 48, (2S)-3-[2-(6-{[4-(7-Chloro-3,3-dimethyl-2-oxo-3,4-dihydro-1,5-naphthyridin-1(2H)-yl)piperidin-1-yl]carbonyl}-5-fluoropyridin-3-yl)-4-fluorophenoxy]-2-methylpropanoic acid], the pIC50 is 5.43.

These data come from patent US8729095B2, “3-(biaryloxy)propionic acid derivatives for prevention and/or treatment of thromboembolic diseases” (Daiichi Sankyo Company, Limited, priority 2009, dated 2014).
